Structures can show the parent of a compound that is named as a salt.

This assay has as its target T1, recombinant IRAK-4 kinase (Homo sapiens, UniProt Q9NWZ3).
T1 construct: purchased Millipore, USA
T1 sequence (Q9NWZ3 1-460): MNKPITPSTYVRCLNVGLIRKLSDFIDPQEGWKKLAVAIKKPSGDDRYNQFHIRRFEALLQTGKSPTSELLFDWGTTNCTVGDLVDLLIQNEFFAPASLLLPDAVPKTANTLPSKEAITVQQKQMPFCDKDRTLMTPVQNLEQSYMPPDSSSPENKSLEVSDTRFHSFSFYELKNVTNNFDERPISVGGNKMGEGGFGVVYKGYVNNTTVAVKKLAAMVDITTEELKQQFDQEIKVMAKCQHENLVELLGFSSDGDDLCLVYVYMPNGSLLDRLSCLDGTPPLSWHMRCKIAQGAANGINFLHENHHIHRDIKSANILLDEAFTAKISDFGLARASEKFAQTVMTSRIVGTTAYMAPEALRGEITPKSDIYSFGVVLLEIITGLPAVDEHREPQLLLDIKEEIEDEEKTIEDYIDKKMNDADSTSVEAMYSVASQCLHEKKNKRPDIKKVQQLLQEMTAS
The assay is described as follows: IRAK-4 Biochemical Assay (TR-FRET). The following applies: 30 min pre-incubation, 100 nM Biotin Histone H3, 20 μM ATP, read-out: IC50 values for IRAK4 activity. As to the method: Compounds were tested for their potential to inhibit IRAK-4 enzyme in a TR-FRET assay using recombinant IRAK-4 kinase from Millipore, USA. The assay buffer was 50 mM Tris-HCl pH 7.5, 20 mM MgCl2, 1 mM EGTA, 2 mM DTT, 3 mM MnCl2 and 0.01% Tween 20.5 ng of IRAK-4 kinase was used for the assay. After pre-incubation of enzyme with test compound for 30 minutes at room temperature, a substrate mixture containing 100 nM Biotin Histone H3 (Millipore, USA) and 20 μM ATP (Sigma, USA) was added and the reaction was incubated for 30 min. Post incubation, the reaction was stopped by the addition of stop mix containing 40 mM EDTA, 1 nM of Europium-Anti-Phospho-Histone H3 (Ser10) antibody (Perkin Elmer, USA) and 20 nM SureLight Allophycocyanin-Streptavidin (Perkin Elmer, USA). The fluorescence emission at 615 nm and 665 nm were measured at an excitation of 340 nm and the percent inhibition was estimated from the ratio of the fluorescence intensities [(F665/F615)×10000]. The compounds were initially screened at 1 μM and 10 μM concentrations and potent compounds (>50% inhibition at 1 μM) were taken for dose response studies. The IC50 values were estimated by fitting the dose-response data to sigmoidal dose response (variable slope), curve fitting program using Graphpad Prism software Version 6.01.
A general note: TR-FRET usually uses a lanthanide donor and a delayed reading to cut background.
For orientation: IC50 means the concentration that gives 50% inhibition. On to `Cc1cnccc1-c1nc(C(=O)Nc2cc3cn(C4CCCC4)nc3cc2C2CC2)co1` [Example 27, N-(2-cyclopentyl-6-cyclopropyl-2H-indazol-5-yl)-2-(3-methylpyridin-4-yl)oxazole-4-carboxamide], for which the IC50 was less than 50 nM.
For `Cc1ccc(-c2nc(C(=O)Nc3cc4cn(C5CCCC5)nc4cc3C3CC3)co2)cn1` [Example 28, N-(2-cyclopentyl-6-cyclopropyl-2H-indazol-5-yl)-2-(6-methylpyridin-3-yl)oxazole-4-carboxamide] the value was less than 50 nM; for `Cc1ccc(C(=O)Nc2cc3cn(C)nc3cc2N2CCCCC2)nc1-c1ccc(N)nc1` [Example 29, 6′-amino-3-methyl-N-(2-methyl-6-(piperidin-1-yl)-2H-indazol-5-yl)-[2,3′-bipyridine]-6-carboxamide hydrochloride], less than 50 nM.
The result for `Cc1ccc(C(=O)Nc2cc3cn(C)nc3cc2N2CCCCC2)nc1-c1cnn(C)c1` [Example 30, 5-methyl-6-(1-methyl-1H-pyrazol-4-yl)-N-(2-methyl-6-(piperidin-1-yl)-2H-indazol-5-yl)picolinamide] reads less than 50 nM; that for `Cc1cc(-c2nc(C(=O)Nc3cc4cnn(C5CC5)c4cc3N3CCCCC3)co2)ccn1` [Example 31, N-(1-cyclopropyl-6-(piperidin-1-yl)-1H-indazol-5-yl)-2-(2-methylpyridin-4-yl)oxazole-4-carboxamide hydrochloride], less than 50 nM; that for `Cn1cc2cc(NC(=O)c3coc(-c4cccnc4O)n3)c(N3CCCCC3)cc2n1` [Example 32, 2-(2-hydroxypyridin-3-yl)-N-(2-methyl-6-(piperidin-1-yl)-2H-indazol-5-yl)oxazole-4-carboxamide], less than 50 nM.
The result for `Cn1cc2cc(NC(=O)c3cccc(N4CC[C@H](N)C4)n3)c(N3CCCCC3)cc2n1` [Example 33, (S)-6-(3-aminopyrrolidin-1-yl)-N-(2-methyl-6-(piperidin-1-yl)-2H-indazol-5-yl)picolinamide 2,2,2-trifluoroacetate] reads 50 to 100 nM.
Regarding `C[C@H](O)Cn1cc(-c2cccc(C(=O)Nc3cc4cn(C)nc4cc3N3CCCCC3)n2)cn1` [Example 34, (S)-6-(1-(2-hydroxypropyl)-1H-pyrazol-4-yl)-N-(2-methyl-6-(piperidin-1-yl)-2H-indazol-5-yl)picolinamide], the IC50 was less than 50 nM.
The result for `Cc1cc(-c2nc(C(=O)Nc3cc4cnn(C5CC5)c4cc3C3CC3)co2)ccn1` [Example 36, N-(1,6-dicyclopropyl-1H-indazol-5-yl)-2-(2-methylpyridin-4-yl)oxazole-4-carboxamide hydrochloride] reads 50 to 100 nM.
For `Cn1ncc2cc(NC(=O)c3cccc(N4CC[C@H](O)C4)n3)c(C3CC3)cc21` [Example 37, (S)—N-(6-cyclopropyl-1-methyl-1H-indazol-5-yl)-6-(3-hydroxypyrrolidin-1-yl)picolinamide] the value was greater than 100 nM; for `Cn1cc2cc(NC(=O)c3cccc(N4CC[C@@H](O)C4)n3)c(N3CCCCC3)cc2n1` [Example 38, (R)-6-(3-hydroxypyrrolidin-1-yl)-N-(2-methyl-6-(piperidin-1-yl)-2H-indazol-5-yl)picolinamide], less than 50 nM; for `Cn1cc2cc(NC(=O)c3cccc(N4CC[C@H](O)C4)n3)c(N3CCCCC3)cc2n1` [Example 39, (S)-6-(3-hydroxypyrrolidin-1-yl)-N-(2-methyl-6-(piperidin-1-yl)-2H-indazol-5-yl)picolinamide], less than 50 nM.
The result for `Cn1cc2cc(NC(=O)c3cccc(N4CCC(O)C4)n3)c(N3CCCCC3)cc2n1` (stereo not drawn) [Example 40, 6-(3-hydroxypyrrolidin-1-yl)-N-(2-methyl-6-(piperidin-1-yl)-2H-indazol-5-yl)picolinamide] reads less than 50 nM; that for `Cn1cc2cc(NC(=O)c3cccc(N4CC[C@@H](N)C4)n3)c(N3CCCCC3)cc2n1` [Example 42, (R)-6-(3-aminopyrrolidin-1-yl)-N-(2-methyl-6-(piperidin-1-yl)-2H-indazol-5-yl)picolinamide], 50 to 100 nM; that for `C[C@@H](O)Cn1cc(-c2cccc(C(=O)Nc3cc4cn(C)nc4cc3N3CCCCC3)n2)cn1` [Example 43, (R)-6-(1-(2-hydroxypropyl)-1H-pyrazol-4-yl)-N-(2-methyl-6-(piperidin-1-yl)-2H-indazol-5-yl)picolinamide], less than 50 nM.
On to `Cn1cc2cc(NC(=O)c3coc(N4CC[C@H](N)C4)n3)c(N3CCCCC3)cc2n1` [Example 44, (S)-2-(3-aminopyrrolidin-1-yl)-N-(2-methyl-6-(piperidin-1-yl)-2H-indazol-5-yl)oxazole-4-carboxamide], for which the concentration for half-maximal inhibition (IC50) was less than 50 nM.
The result for `Cc1cc(-c2nc(C(=O)Nc3cc4cnn(C)c4cc3C3CC3)co2)ccn1` [Example 45, N-(6-cyclopropyl-1-methyl-1H-indazol-5-yl)-2-(2-methylpyridin-4-yl)oxazole-4-carboxamide] reads less than 50 nM; that for `C[C@H](O)Cn1cc(-c2cccc(C(=O)Nc3cc4cnn(C)c4cc3C3CC3)n2)cn1` [Example 46, (S)—N-(6-cyclopropyl-1-methyl-1H-indazol-5-yl)-6-(1-(2-hydroxypropyl)-1H-pyrazol-4-yl)picolinamide], 50 to 100 nM.
As to `C[C@H](O)Cn1cc(-c2cccc(C(=O)Nc3cc4cn(C)nc4cc3C3CC3)n2)cn1` [Example 47, (S)—N-(6-cyclopropyl-2-methyl-2H-indazol-5-yl)-6-(1-(2-hydroxypropyl)-1H-pyrazol-4-yl)picolinamide], the concentration for half-maximal inhibition (IC50) is less than 50 nM.
The result for `Cn1cc2cc(NC(=O)c3cccc(N4CC[C@H](N)C4)n3)c(C3CC3)cc2n1` [Example 48, (S)-6-(3-aminopyrrolidin-1-yl)-N-(6-cyclopropyl-2-methyl-2H-indazol-5-yl)picolinamide] reads greater than 100 nM; that for `Cn1cc2cc(NC(=O)c3cccc(N4CC[C@H](O)C4)n3)c(C3CC3)cc2n1` [Example 49, (S)—N-(6-cyclopropyl-2-methyl-2H-indazol-5-yl)-6-(3-hydroxypyrrolidin-1-yl)picolinamide], less than 50 nM.
On to `Cn1ncc2cc(NC(=O)c3coc(N4CC[C@H](O)C4)n3)c(C3CC3)cc21` [Example 50, (S)—N-(6-cyclopropyl-1-methyl-1H-indazol-5-yl)-2-(3-hydroxypyrrolidin-1-yl)oxazole-4-carboxamide], for which the IC50 is greater than 100 nM.
Take `Cn1ncc2cc(NC(=O)c3coc(N4CC[C@H](N)C4)n3)c(C3CC3)cc21` [Example 51, (S)-2-(3-aminopyrrolidin-1-yl)-N-(6-cyclopropyl-1-methyl-1H-indazol-5-yl)oxazole-4-carboxamide]: the IC50 is greater than 100 nM.
In the case of `Cn1cc2cc(NC(=O)c3coc(N4CC[C@H](O)C4)n3)c(N3CCCCC3)cc2n1` [Example 52, (S)-2-(3-hydroxypyrrolidin-1-yl)-N-(2-methyl-6-(piperidin-1-yl)-2H-indazol-5-yl)oxazole-4-carboxamide], the concentration for half-maximal inhibition (IC50) was less than 50 nM.
For `C[C@H](O)Cn1cc(-c2nc(C(=O)Nc3cc4cnn(C)c4cc3C3CC3)co2)cn1` [Example 53, (S)—N-(6-cyclopropyl-1-methyl-1H-indazol-5-yl)-2-(1-(2-hydroxypropyl)-1H-pyrazol-4-yl)oxazole-4-carboxamide], the concentration for half-maximal inhibition (IC50) is greater than 100 nM.
In the case of `Cn1cc2cc(NC(=O)c3coc(N4CC[C@H](N)C4)n3)c(C3CC3)cc2n1` [Example 54, (S)-2-(3-aminopyrrolidin-1-yl)-N-(6-cyclopropyl-2-methyl-2H-indazol-5-yl)oxazole-4-carboxamide], the half-maximal inhibitory concentration (IC50) was greater than 100 nM.
For `Cn1cc2cc(NC(=O)c3coc(N4CC[C@H](O)C4)n3)c(C3CC3)cc2n1` [Example 55, (S)—N-(6-cyclopropyl-2-methyl-2H-indazol-5-yl)-2-(3-hydroxypyrrolidin-1-yl)oxazole-4-carboxamide] the value was 50 to 100 nM; for `CC(O)CNc1cccc(C(=O)Nc2cc3cn(C)nc3cc2N2CCCCC2)n1` (stereo not drawn) [Example 57, 6-((2-hydroxypropyl)amino)-N-(2-methyl-6-(piperidin-1-yl)-2H-indazol-5-yl)picolinamide], less than 50 nM.
For the compound `Cc1cc(-c2nc(C(=O)Nc3cc4cn(C)nc4cc3N3CCC(O)CC3)co2)ccn1` [Example 58, N-(6-(4-hydroxypiperidin-1-yl)-2-methyl-2H-indazol-5-yl)-2-(2-methylpyridin-4-yl)oxazole-4-carboxamide], the concentration for half-maximal inhibition (IC50) was less than 50 nM.
The result for `Cc1cc(-c2nc(C(=O)Nc3cc4cnn(C)c4cc3N3CCC3)co2)ccn1` [Example 59, N-(6-(azetidin-1-yl)-1-methyl-1H-indazol-5-yl)-2-(2-methylpyridin-4-yl)oxazole-4-carboxamide] reads greater than 100 nM.

Source of the values: patent US10160753B2, “Indazole compounds as IRAK4 inhibitors” (Aurigene Discovery Technologies Limited, priority 2014, dated 2018).
